Experimental data: publication PMC6979384, “Characterization of the plant homeodomain (PHD) reader family for their histone tail interactions” (Epigenetics & Chromatin, 2020)

What was measured:
Experiment in all cases: Histone peptide microarray
Type in all cases: binding, human
CHD4 (PPCC) = details: sheet "Array Heatmap"; GST-tagged CHD4 (PPCC); arrays performed twice, total replicate number n = 4
Excerpt: (§1) To more comprehensively define the histone interactions of the 31 PHD readers identified from the domain microarray analyses, we probed each on an alternate microarray platform containing a library of 293 synthetic histone peptides with single or combinatorial PTMs (Additional file 2: Figure S4 and Additional file 3: Table S2).
(§2) The 31 GST-tagged PHD readers identified in the PHD finger domain array were expressed and purified as previously. Histone peptide arrays and peptide pulldown assays were conducted as recently described (specifically, the optimized protocol from Petell et al. for the former).
(§3) Supplementary file 13072_2020_328_MOESM3_ESM.xlsx: Additional file 3: Table S2. […] Excel Tab Peptide List is a compiled list of the entire 293 histone peptide library with amino acid sequence ranges. […] Each number corresponds to the peptide number designated in Peptide List. Excel Tab Average Signals is a compiled set of binding data: chromatin reader at 0.5 μM vs. entire 293 peptide library. Data is presented as the average and standard deviation of 4 replicates. The average signals are colored to indicate signal intensity with green being strong and white being weak/low. […] Key: red= stronger relative binding; blue = weaker relative binding. Excel Tab Array info summary is a table summarizing the domains, sequence coverage, array signal range, and noise for each of the GST-tagged readers assayed on the peptide microarrays.

AIRE (PP) = details: sheet "Array Heatmap"; GST-tagged AIRE (PP); arrays performed twice, total replicate number n = 4
Excerpt: as §1, §2, §3

ING5 = details: sheet "Array Heatmap"; GST-tagged ING5; arrays performed twice, total replicate number n = 4
Excerpt: as §1, §2, §3

BPTF (PB) = details: sheet "Array Heatmap"; GST-tagged BPTF (PB); arrays performed twice, total replicate number n = 4
Excerpt: as §1, §2, §3

PHF21A = details: sheet "Array Heatmap"; GST-tagged PHF21A; arrays performed twice, total replicate number n = 4
Excerpt: as §1, §2, §3

DPF2 (PPC2W2) = details: sheet "Array Heatmap"; GST-tagged DPF2 (PPC2W2); arrays performed twice, total replicate number n = 4
Excerpt: as §1, §2, §3

CHD5 (PPCC) = details: sheet "Array Heatmap"; GST-tagged CHD5 (PPCC); arrays performed twice, total replicate number n = 4
Excerpt: as §1, §2, §3

TAF3 = details: sheet "Array Heatmap"; GST-tagged TAF3; arrays performed twice, total replicate number n = 4
Excerpt: as §1, §2, §3

KDM7A = details: sheet "Array Heatmap"; GST-tagged KDM7A; arrays performed twice, total replicate number n = 4
Excerpt: as §1, §2, §3

ING1 = details: sheet "Array Heatmap"; GST-tagged ING1; arrays performed twice, total replicate number n = 4
Excerpt: as §1, §2, §3

PHF13 = details: sheet "Array Heatmap"; GST-tagged PHF13; arrays performed twice, total replicate number n = 4
Excerpt: as §1, §2, §3

MLL5 = details: sheet "Array Heatmap"; GST-tagged MLL5; arrays performed twice, total replicate number n = 4
Excerpt: as §1, §2, §3

KDM4C (TTP) = details: sheet "Array Heatmap"; GST-tagged KDM4C (TTP); arrays performed twice, total replicate number n = 4
Excerpt: as §1, §2, §3

PHF8 = details: sheet "Array Heatmap"; GST-tagged PHF8; arrays performed twice, total replicate number n = 4
Excerpt: as §1, §2, §3

KDM5A (1) = details: sheet "Array Heatmap"; GST-tagged KDM5A (1); arrays performed twice, total replicate number n = 4
Excerpt: as §1, §2, §3

KDM5A (3) = details: sheet "Array Heatmap"; GST-tagged KDM5A (3); arrays performed twice, total replicate number n = 4
Excerpt: as §1, §2, §3

MORC3 (CW) = details: sheet "Array Heatmap"; GST-tagged MORC3 (CW); arrays performed twice, total replicate number n = 4
Excerpt: as §1, §2, §3

BAZ2B = details: sheet "Array Heatmap"; GST-tagged BAZ2B; arrays performed twice, total replicate number n = 4
Excerpt: as §1, §2, §3

CHD5 (PCC) = details: sheet "Array Heatmap"; GST-tagged CHD5 (PCC); arrays performed twice, total replicate number n = 4
Excerpt: as §1, §2, §3

TRIM66 (PB) = details: sheet "Array Heatmap"; GST-tagged TRIM66 (PB); arrays performed twice, total replicate number n = 4
Excerpt: as §1, §2, §3

DIDO1 = details: sheet "Array Heatmap"; GST-tagged DIDO1; arrays performed twice, total replicate number n = 4
Excerpt: as §1, §2, §3

ING3 = details: sheet "Array Heatmap"; GST-tagged ING3; arrays performed twice, total replicate number n = 4
Excerpt: as §1, §2, §3

ING2 = details: sheet "Array Heatmap"; GST-tagged ING2; arrays performed twice, total replicate number n = 4
Excerpt: as §1, §2, §3

RAG2 = details: sheet "Array Heatmap"; GST-tagged RAG2; arrays performed twice, total replicate number n = 4
Excerpt: as §1, §2, §3

PHF2 = details: sheet "Array Heatmap"; GST-tagged PHF2; arrays performed twice, total replicate number n = 4
Excerpt: as §1, §2, §3

ING4 = details: sheet "Array Heatmap"; GST-tagged ING4; arrays performed twice, total replicate number n = 4
Excerpt: as §1, §2, §3

PHF23 = details: sheet "Array Heatmap"; GST-tagged PHF23; arrays performed twice, total replicate number n = 4
Excerpt: as §1, §2, §3

PHRF1 (RP) = details: sheet "Array Heatmap"; GST-tagged PHRF1 (RP); arrays performed twice, total replicate number n = 4
Excerpt: as §1, §2, §3

KDM5B (3) = details: sheet "Array Heatmap"; GST-tagged KDM5B (3); arrays performed twice, total replicate number n = 4
Excerpt: as §1, §2, §3

SP140L = details: sheet "Array Heatmap"; GST-tagged SP140L; arrays performed twice, total replicate number n = 4
Excerpt: as §1, §2, §3

KDM5B (1) = details: sheet "Array Heatmap"; GST-tagged KDM5B (1); arrays performed twice, total replicate number n = 4
Excerpt: as §1, §2, §3

Substance | Array Heatmap signal, CHD4 (PPCC) (CHD4 (PPCC)) | Array Heatmap signal, AIRE (PP) (AIRE (PP)) | Array Heatmap signal, ING5 (ING5) | Array Heatmap signal, BPTF (PB) (BPTF (PB)) | Array Heatmap signal, PHF21A (PHF21A) | Array Heatmap signal, DPF2 (PPC2W2) (DPF2 (PPC2W2)) | Array Heatmap signal, CHD5 (PPCC) (CHD5 (PPCC)) | Array Heatmap signal, TAF3 (TAF3) | Array Heatmap signal, KDM7A (KDM7A) | Array Heatmap signal, ING1 (ING1) | Array Heatmap signal, PHF13 (PHF13) | Array Heatmap signal, MLL5 (MLL5) | Array Heatmap signal, KDM4C (TTP) (KDM4C (TTP)) | Array Heatmap signal, PHF8 (PHF8) | Array Heatmap signal, KDM5A (1) (KDM5A (1)) | Array Heatmap signal, KDM5A (3) (KDM5A (3)) | Array Heatmap signal, MORC3 (CW) (MORC3 (CW)) | Array Heatmap signal, BAZ2B (BAZ2B) | Array Heatmap signal, CHD5 (PCC) (CHD5 (PCC)) | Array Heatmap signal, TRIM66 (PB) (TRIM66 (PB)) | further results
H3 105-124: H3 105-124 | 0.628 | 0.5002 | 0.3472 | 0.3405 | 0.4845 | 0.5942 | 0.5675 | 0.2585 | 0.4014 | 0.4905 | 0.6001 | 0.5209 | 0.5235 | 0.3594 | 0.4735 | 0.3849 | 0.3313 | 0.4756 | 0.8446 | 0.6004 | Array Heatmap signal, DIDO1 (DIDO1): 0.6132; Array Heatmap signal, ING3 (ING3): 0.4768; Array Heatmap signal, ING2 (ING2): 0.5916; Array Heatmap signal, RAG2 (RAG2): 0.2418; Array Heatmap signal, PHF2 (PHF2): 0.4643; Array Heatmap signal, ING4 (ING4): 0.4475; Array Heatmap signal, PHF23 (PHF23): 0.5245; Array Heatmap signal, PHRF1 (RP) (PHRF1 (RP)): 0.3871; Array Heatmap signal, KDM5B (3) (KDM5B (3)): 0.4564; Array Heatmap signal, SP140L (SP140L): 0.3548; Array Heatmap signal, KDM5B (1) (KDM5B (1)): 0.6304
H3 (1-20) N-ac: H3 1-20 | 0.5805 | 0.5035 | 0.3522 | 0.3531 | 0.4724 | 0.6951 | 0.5483 | 0.3122 | 0.3283 | 0.5284 | 0.6234 | 0.5714 | 0.4656 | 0.365 | 0.4705 | 0.5353 | 0.4955 | 0.4663 | 0.8196 | 0.7386 | Array Heatmap signal, DIDO1 (DIDO1): 0.6386; Array Heatmap signal, ING3 (ING3): 0.4681; Array Heatmap signal, ING2 (ING2): 0.6126; Array Heatmap signal, RAG2 (RAG2): 0.259; Array Heatmap signal, PHF2 (PHF2): 0.4904; Array Heatmap signal, ING4 (ING4): 0.4519; Array Heatmap signal, PHF23 (PHF23): 0.532; Array Heatmap signal, PHRF1 (RP) (PHRF1 (RP)): 0.6182; Array Heatmap signal, KDM5B (3) (KDM5B (3)): 0.5329; Array Heatmap signal, SP140L (SP140L): 0.3813; Array Heatmap signal, KDM5B (1) (KDM5B (1)): 0.6502
